Experimental data published in patent publication US20210235699A1, “Adjuvant Compositions Comprising a Tetramethylguanidine and a 4-Isothiazolin-3-One” (Lonza, LLC, priority 2018, published 2021).
“Also recorded” adds a separate entry of the source. Marks after values point to notes of the source that are not given here.

Columns and labels:
[1] = tested on: bacteria, fungi and yeast; conditions: cited from earlier work
[2] = tested on: combined bacterial test inoculum: Acinetobacter calcoaceticus, Escherichia coli, Pseudomonas aeruginosa, Enterobacter cloacae; assay: Bacterial challenge test (ASTM D2574-97, modified) in standard water based interior paint; format: cell-based; design: key to Streak plate rank, 1st inoculation 24 h / Streak plate rank, 1st inoculation 72 h / Streak plate rank, 2nd inoculation 72 h / Streak plate rank, 3rd inoculation 24 h: 0 = no growth; 1 = 1-5 Colony Forming Unit (cfu); 2 = 6-15 cfu; 3 = 16-30 cfu; 4 = 31-45 cfu; 5 = greater than 45 cfu; 5c = Confluent Growth; conditions: for Dilution plate count, 3rd inoculation 72 h / Streak plate rank, 3rd inoculation 24 h: inoculum 2.50%; for Streak plate rank, 2nd inoculation 72 h: inoculum 5%; for Streak plate rank, 1st inoculation 24 h / Streak plate rank, 1st inoculation 72 h: inoculum 10%
Experimental: (§1) The following bacterial and fungal challenge tests were performed to ascertain whether low concentrations of 4-isothiazolin-3-one biocidal active compounds, pyrithione, coumarin or guanidine adjuvant are sufficient to prevent microbial contamination of final products when deliberately inoculated with spoilage microbes.
(§2) The tests were performed according to ASTM standard D2574-97 (Standard Test Method for Resistance of Emulsion Paints in the Container to Attack by Microorganisms, ASTM International, West Conshohocken, Pa.), with higher inoculation volumes and frequency. A standard water based interior paint was used as the test substrate. Sample sizes of 20 g test substrate were used and the test samples were prepared in a sterile 30 mL square Nalgene bottle.
The bacteria were grown on pH 5, 7, or 9 Trypticase Soy Agar (TSA) lawns. The bacteria were grown individually on TSA and harvested by using sterile buffered water. The bacterial lawns were washed off with 30 mL of sterile water and an equal volume of each individual cell suspension was withdrawn from each serum bottle to make a combined cell suspension. Combined bacterial suspension were about 10^7 cfu/mL, which provides about 10^6 cfu/mL in the sample.
(§3) The following microorganisms were used for inoculation of the tested samples:
For the bacterial challenge testing, each sample was inoculated with a combined bacterial test inoculum volume equivalent to 10% of the total initial sample volume for the initial inoculation, 5% of the total initial sample volume for the second inoculation and 2.5% of the total initial sample volume for the third inoculation. Inoculum volumes for the fungal challenge tests were 2%, 1% and 0.5% of the total initial sample volume, respectively. Samples were inoculated every 96 h.
(§4) Concentrations of biocidal active compounds and adjuvants refer to the final concentration in the test samples prior to the first inoculation.
(§5) The efficacy of the added agent in each sample was monitored by means of a streak plate test after 24 hours (all inoculations) and 72 hours of inoculation (first and second inoculation). At 72 hours of the third inoculation performed, a dilution plate count was performed in order to obtain a quantitative measurement of contamination (cfu/mL). A count of less than 10 colony forming units per mL ([…]) is considered to show no measurable contamination. For the streak plate tests, bacterial samples were streaked on Tryptic Soy Agar (TSA) and incubated for 48 hours at 30° C. before reading. Fungal samples were streaked on Potato Dextrose Agar (PDA) and incubated for 5 days at 25° C. before reading.
(§6) The streak plates were ranked from 0-5c according to the degree of microbial growth:
(§7) The challenge tests were performed as described above.

[3] = tested on: bacterial test inoculum (Acinetobacter calcoaceticus, Escherichia coli, Pseudomonas aeruginosa, Enterobacter cloacae); assay: Quick kill testing in pre-contaminated standard interior paint (dilution-plate counts); format: cell-based; conditions: for Dilution-plate count T4 / Dilution-plate count T8 / Dilution-plate count T24: Table 9, 30° C.; for Dilution-plate count T4: 4 hours after treatment; for Dilution-plate count T8: 8 hours after treatment; for Dilution-plate count T24: 24 hours after treatment
Experimental: An additional test was performed to analyze how quickly the tested biocidal compositions will recover a sample from microbial spoilage. For each sample, 20 g of a pre-contaminated standard interior paint formulation serving as a test substrate was weighed into a sterile container. All samples were contaminated with the bacterial test inoculum described above (10% of the of the total initial sample volume).
A dilution-plate count was performed on the untreated sample (0 hour time point) and a biocidal composition added aseptically to each sample. Subsequent to this treatment, further dilution-plate counts were performed at fixed time intervals (time points are given in hours) on each sample, including an untreated negative control. All samples were incubated at 30° C.±2° C.
Concentrations in ppm refer to final concentrations of the biocidal compositions in the test samples. The relative amounts of active compounds and adjuvant in the tested biocidal compositions were as indicated below: […]

[4] = tested on: fungal test inoculum: Aspergillus niger, Penicillium funiculosum, Candida albicans; assay: Fungal challenge test (ASTM D2574-97, modified) in standard water based interior paint; format: cell-based; design: key to Streak plate rank, 2nd inoculation 72 h / Streak plate rank, 1st inoculation 72 h / Streak plate rank, 1st inoculation 24 h / Streak plate rank, 2nd inoculation 24 h / Streak plate rank, 3rd inoculation 24 h: 0 = no growth; 1 = 1-5 Colony Forming Unit (cfu); 2 = 6-15 cfu; 3 = 16-30 cfu; 4 = 31-45 cfu; 5 = greater than 45 cfu; 5c = Confluent Growth; conditions: for Dilution plate count, 3rd inoculation 72 h / Streak plate rank, 3rd inoculation 24 h: inoculum 0.50%; for Streak plate rank, 1st inoculation 24 h / Streak plate rank, 1st inoculation 72 h: inoculum 2%
Experimental: as §1, §2
Fungal lawns were grown on Potato Dextrose Agar (PDA) or Sabouraud Dextrose Agar (SAB). Individual fungal spore suspensions were harvested by adding 10 mL of sterile 0.05% Triton X to fungal lawns. The lawns were then gently agitated by rubbing a sterile swab on the lawn, being careful not to puncture the agar. The liquid was then aseptically transferred to a sterile bottle containing sterile glass beads. The top of the bottle was closed and the bottle shaken vigorously to break up any chunks in the suspension. The shaken spore suspension was decanted through sterile fibers into another sterile bottle. The decanted spore suspension was counted using a hemocytometer. Once the spore counts were determined, each suspension was diluted in order to obtain 10^6 spore/mL. Each diluted fungal suspension was poured into a sterile container.
as §3
For the bacterial challenge testing, each sample was inoculated with a combined bacterial test inoculum volume equivalent to 10% of the total initial sample volume for the initial inoculation, 5% of the total initial sample volume for the second inoculation and 2.5% of the total initial sample volume for the third inoculation. […] Samples were inoculated every 96 h.
as §4, §5, §6, §7

[5] = neutral pH; cited from earlier work

Molecule: O=c1[nH]sc2ccccc12 [BIT, 1,2-benzisothiazolin-3-one]
- amounts required for a reliable and quick biocidal activity [1]: up to 500 ppm
- Dilution plate count, 3rd inoculation 72 h ([2]; 50 ppm): 4.2 × 10^7 cfu/mL
- Streak plate rank, 3rd inoculation 24 h ([2]; 50 ppm): 5 (5 = greater than 45 cfu)
- Streak plate rank, 2nd inoculation 72 h ([2]; 50 ppm): 5 (5 = greater than 45 cfu)
- Streak plate rank, 1st inoculation 24 h ([2]; 50 ppm): 5 (5 = greater than 45 cfu)
- Streak plate rank, 1st inoculation 72 h ([2]; 50 ppm): 4 (4 = 31-45 cfu)
- Dilution-plate count T4 ([3]; 50 ppm): 1.15 × 10^7
- Dilution-plate count T8 ([3]; 50 ppm): 3.4 × 10^6
- Dilution-plate count T24 ([3]; 50 ppm): 9.4 × 10^5
- Dilution plate count, 3rd inoculation 72 h ([4]; 50 ppm): 2.0 × 10^2 cfu/mL
- Streak plate rank, 3rd inoculation 24 h ([4]; 50 ppm): 5 (5 = greater than 45 cfu)
- Streak plate rank, 2nd inoculation 72 h ([4]; 50 ppm, inoculum 1%): 1 (1 = 1-5 Colony Forming Unit (cfu))
- Streak plate rank, 1st inoculation 24 h ([4]; 50 ppm): 5 (5 = greater than 45 cfu)
- Streak plate rank, 1st inoculation 72 h ([4]; 50 ppm): 2 (2 = 6-15 cfu)

Molecule: CN(C)C(=N)N(C)C [TMG, 1,1,3,3-tetramethylguanidine]
- Dilution plate count, 3rd inoculation 72 h ([2]; 750 ppm): 1.7 × 10^5 cfu/mL
- Streak plate rank, 3rd inoculation 24 h ([2]; 750 ppm): 5c
- Streak plate rank, 2nd inoculation 72 h ([2]; 750 ppm): 5c
- Streak plate rank, 1st inoculation 24 h ([2]; 750 ppm): 5 (5 = greater than 45 cfu)
- Streak plate rank, 1st inoculation 72 h ([2]; 750 ppm): 5c
- Dilution plate count, 3rd inoculation 72 h ([2]; 1000 ppm): 2.1 × 10^6 cfu/mL
- Streak plate rank, 3rd inoculation 24 h ([2]; 1000 ppm): 5c
- Streak plate rank, 2nd inoculation 72 h ([2]; 1000 ppm): 5c
- Streak plate rank, 1st inoculation 24 h ([2]; 1000 ppm): 5 (5 = greater than 45 cfu)
- Streak plate rank, 1st inoculation 72 h ([2]; 1000 ppm): 5 (5 = greater than 45 cfu)
- Dilution plate count, 3rd inoculation 72 h ([2]; 1250 ppm): 6.6 × 10^6 cfu/mL
- Streak plate rank, 3rd inoculation 24 h ([2]; 1250 ppm): 5c
- Streak plate rank, 2nd inoculation 72 h ([2]; 1250 ppm): 5c
- Streak plate rank, 1st inoculation 24 h ([2]; 1250 ppm): 0
- Streak plate rank, 1st inoculation 72 h ([2]; 1250 ppm): 0
- Dilution plate count, 3rd inoculation 72 h ([2]; 1500 ppm): <10 cfu/mL
- Streak plate rank, 3rd inoculation 24 h ([2]; 1500 ppm): 3 (3 = 16-30 cfu)
- Streak plate rank, 2nd inoculation 72 h ([2]; 1500 ppm): 0
- Streak plate rank, 1st inoculation 24 h ([2]; 1500 ppm): 0
- Streak plate rank, 1st inoculation 72 h ([2]; 1500 ppm): 0
- effect of guanidine on bactericidal activity of 4-isothiazolin-3-ones (in words) ([2]; in combination with BIT and BBIT, Tables 3 and 5): significantly improved
- Dilution-plate count T4 ([3]; 940 ppm): 1.19 × 10^7
- Dilution-plate count T8 ([3]; 940 ppm): 1.02 × 10^7
- Dilution-plate count T24 ([3]; 940 ppm): 4.0 × 10^6
- quick kill performance (in words) ([3]; Tables 8 and 9): markedly accelerated the recovery
- Dilution plate count, 3rd inoculation 72 h ([4]; 750 ppm): <10 cfu/mL
- Streak plate rank, 3rd inoculation 24 h ([4]; 750 ppm): 3 (3 = 16-30 cfu)
- Streak plate rank, 1st inoculation 24 h ([4]; 750 ppm): 4 (4 = 31-45 cfu)
- Streak plate rank, 1st inoculation 72 h ([4]; 750 ppm): 0
- Streak plate rank, 2nd inoculation 72 h ([4]; 750 ppm, inoculum added was 2%): 1** (1 = 1-5 Colony Forming Unit (cfu))
- Dilution plate count, 3rd inoculation 72 h ([4]; 1000 ppm): <10 cfu/mL
- Streak plate rank, 3rd inoculation 24 h ([4]; 1000 ppm): 3 (3 = 16-30 cfu)
- Streak plate rank, 1st inoculation 24 h ([4]; 1000 ppm): 4 (4 = 31-45 cfu)
- Streak plate rank, 1st inoculation 72 h ([4]; 1000 ppm): 0
- Streak plate rank, 2nd inoculation 72 h ([4]; 1000 ppm, inoculum added was 2%): 0**
- Dilution plate count, 3rd inoculation 72 h ([4]; 1250 ppm): <10 cfu/mL
- Streak plate rank, 3rd inoculation 24 h ([4]; 1250 ppm): 3 (3 = 16-30 cfu)
- Streak plate rank, 1st inoculation 24 h ([4]; 1250 ppm): 2 (2 = 6-15 cfu)
- Streak plate rank, 1st inoculation 72 h ([4]; 1250 ppm): 0
- Streak plate rank, 2nd inoculation 72 h ([4]; 1250 ppm, inoculum added was 2%): 0**
- Dilution plate count, 3rd inoculation 72 h ([4]; 1500 ppm): <10 cfu/mL
- Streak plate rank, 3rd inoculation 24 h ([4]; 1500 ppm): 3 (3 = 16-30 cfu)
- Streak plate rank, 1st inoculation 24 h ([4]; 1500 ppm): 2 (2 = 6-15 cfu)
- Streak plate rank, 1st inoculation 72 h ([4]; 1500 ppm): 0
- Streak plate rank, 2nd inoculation 72 h ([4]; 1500 ppm, inoculum added was 2%): 0**
- effect of guanidine on fungicidal activity of 4-isothiazolin-3-ones (in words) ([4]; in combination with BIT and BBIT, Tables 4 and 6): enhancing effect; also recorded: significantly improved

Molecule: Zinc pyrithione
- solubility in water [5]: 8 ppm
